Reference: article PMC9181795, “Ibuprofen Favors Binding of Amyloid-β Peptide to Its Depot, Serum Albumin” (International Journal of Molecular Sciences, 2022)
Entries after “also recorded” stand apart in the source; their conditions may differ.

Key:
[1] = system: HSA; conditions: cited from earlier work
[2] = system: Aβ40; experiment: ThT fluorescence assay, Aβ40 fibrillation; type: biochemical, human
Experimental: ThT fluorescence emission measurements were carried out using a BioTek Synergy H1 multimode microplate reader and Greiner Bio-One non-binding microplates #781906 mainly as described in ref. [11]. […] ThT fluorescence was excited at 440 nm and emission at 485 nm was measured for 190 h every 30 min, with orbital shaking prior to each measurement. […] The lag time, tlag, is calculated as (t0 − 2/kapp).

[3] = system: AD; set-up: method as in 2 sources, one per row (each row's own in cited_ref): ref [36],[37],[38] = [36]; PMID 11794217; doi:10.1056/NEJMoa010178; 36. In’T Veld B.A. Ruitenberg A. Hofman A. Launer L.J. Van Duijn C.M. Stijnen T. Breteler M.M. Stricker B.H. Nonsteroidal antiinflammatory drugs and the risk of Alzheimer’s disease N. Engl. J. Med. 20 || [37]; PMID 18458226; doi:10.1212/01.wnl.0000311269.57716.63; 37. Vlad S.C. Miller D.R. Kowall N.W. Felson D.T. Protective effects of NSAIDs on the development of Alzheimer disease Neurology 2008 70 1672 1677 10.1212/01.wnl.0000311269.57716.63 18458226 PMC275824 || [38]; PMID 25227314; doi:10.3233/JAD-141506; 38. Wang J. Tan L. Wang H.F. Tan C.C. Meng X.F. Wang C. Tang S.W. Yu J.T. Anti-inflammatory drugs and risk of Alzheimer’s disease: An updated systematic review and meta-analysis J. Alzheimers Dis. 201 ||| ref [36],[37],[73] = [36]; PMID 11794217; doi:10.1056/NEJMoa010178; 36. In’T Veld B.A. Ruitenberg A. Hofman A. Launer L.J. Van Duijn C.M. Stijnen T. Breteler M.M. Stricker B.H. Nonsteroidal antiinflammatory drugs and the risk of Alzheimer’s disease N. Engl. J. Med. 20 || [37]; PMID 18458226; doi:10.1212/01.wnl.0000311269.57716.63; 37. Vlad S.C. Miller D.R. Kowall N.W. Felson D.T. Protective effects of NSAIDs on the development of Alzheimer disease Neurology 2008 70 1672 1677 10.1212/01.wnl.0000311269.57716.63 18458226 PMC275824 || [73]; PMID 33134914; doi:10.1093/braincomms/fcaa109; 73. Rivers-Auty J. Mather A.E. Peters R. Lawrence C.B. Brough D. Anti-inflammatories in Alzheimer’s disease—potential therapy or spurious correlate? Brain Commun. 2020 2 fcaa109 10.1093/braincomms/fca; conditions: cited from earlier work
[4] = 20 µM IBU, no HSA, 20 µM Aβ40, 30 °C, Boltzmann sigmoid function, n = 3–5

CC(C)Cc1ccc(C(C)C(=O)O)cc1 (centres unmarked) [IBU, 2-[4-(2-methylpropyl)phenyl]propanoic acid]
effect of IBU on HSA affinity to heme ([1]; ref [74],[75]): allosterically affect HSA affinity to heme
effect of IBU binding on HSA affinity to lorazepam ([1]; ref [76]): enhanced its affinity to lorazepam
effect of IBU on suppression of Aβ40 fibrillation by HSA ([2]; 20 µM IBU + 2 µM HSA, 20 µM Aβ40, 30 °C, pH 7.4): strengthens the suppression of Aβ40 fibrillation by 2 µM HSA; also recorded: favors the suppression of fibrillation of 20 µM Aβ40 by 2 µM HSA
decline in tlag in response to IBU ([2]; 20 µM IBU in presence of 2 µM HSA, 20 µM Aβ40, 30 °C, n = 3–5): 21%
minor opposite effects of IBU on lag phase and rate constant ([2]; 20 µM IBU, 2 µM HSA, 20 µM Aβ40): shortening of the lag phase and decrease in the apparent rate constant of the process
suppression of fibrillation by IBU alone ([2]; 20 µM IBU, 20 µM Aβ40, no HSA, 30 °C, pH 7.4): does not induce statistically significant suppression of the fibrillation process
effect on apparent rate constant kapp [2, 4]: did not affect the kapp value
factor of shortening of lag phase (tlag) [2, 4]: 2
decrease in apparent rate constant kapp ([2]; combination of 2 µM HSA and 20 µM IBU, 20 µM Aβ40, 30 °C, n = 3–5): 17%
rates of AD among people taking IBU for chronic treatment of inflammatory conditions ([3]; ref [36],[37],[73]): lower rates of AD
AD protection with long-term use of nonsteroidal anti-inflammatory drugs, including IBU ([3]; retrospective studies, ref [36],[37],[38]): protective against AD
